Test results from US20250101025A1, “NOVEL PLK1 DEGRADATION INDUCING COMPOUND” (UPPTHERA, INC., priority 2021, published 2025).

Legend:
Assay type in all cases: cell-based
H526 cell line = test: Cell viability assay for NCI-H526 cell line (EZ-Cytox); conditions: Homo sapiens, NCI-H526, 120 h; H526 cells, 3-fold dilutions 3000 nM to 0.46 nM, 5 days
Method: (1) Culture of NCI-H526 Cell Line
(2) Treatment of Compounds of the Present Invention and Method of Cell Viability Assay
After treating the compound to each well to make the total volume of 200 μL, it was cultured in a CO2 incubator (Thermo Fisher Science, Cat. No. 4111) for 5 days.
The absorbance of the completely cultured sample was measured by setting the wavelength of a plate reader (BMG Labtech, CLARIOstar Plus) to […], and was measured after shaking for 3 minutes in a plate reader before measurement.
In Table 3, Activity represents IC50 value of each Exemplary Compound treatment group to H526 cell line (A: <30 nM, B: <50 nM, C: <100 nM, D: <200 nM, E: <400 nM).

MRC-5 cell line = test: Cell viability assay for MRC-5 cell line (EZ-Cytox cytotoxicity experiment); conditions: Homo sapiens, MRC5, 120 h; MRC-5 normal cell line, 3-fold dilutions 10000 nM to 1.52 nM, 5 days; Exemplary Compounds, numeric values; read-out: Activity: IC50 value (nM) to MRC-5 cell line
Method: 4. Cell Viability Assay for MRC-5 Cell Line
(1) Culture of MRC-5 Cell Line
Passage of cultured cells was maintained within P15.
(2) Treatment of Compounds of the Present Invention
Then, it was cultured in 37° C.
(3) Cytotoxicity Experiment
CO2 incubator for 4 hours.

PLK1 = biological target: T1, PLK1 (Homo sapiens, UniProt P53350); test: Luciferase assay for PLK1 in HeLa LgBit (Plk1-HiBit KI) cell line; conditions: compound 300 nM, luminescence after 9 hours
T1 construct: endogenous in cells; host or cells: HeLa LgBit (Plk1-HiBit KI): HeLa stably expressing LgBit, with HiBit knocked in at the endogenous Plk1 locus by CRISPR/Cas9
T1 sequence (P53350 whole entry): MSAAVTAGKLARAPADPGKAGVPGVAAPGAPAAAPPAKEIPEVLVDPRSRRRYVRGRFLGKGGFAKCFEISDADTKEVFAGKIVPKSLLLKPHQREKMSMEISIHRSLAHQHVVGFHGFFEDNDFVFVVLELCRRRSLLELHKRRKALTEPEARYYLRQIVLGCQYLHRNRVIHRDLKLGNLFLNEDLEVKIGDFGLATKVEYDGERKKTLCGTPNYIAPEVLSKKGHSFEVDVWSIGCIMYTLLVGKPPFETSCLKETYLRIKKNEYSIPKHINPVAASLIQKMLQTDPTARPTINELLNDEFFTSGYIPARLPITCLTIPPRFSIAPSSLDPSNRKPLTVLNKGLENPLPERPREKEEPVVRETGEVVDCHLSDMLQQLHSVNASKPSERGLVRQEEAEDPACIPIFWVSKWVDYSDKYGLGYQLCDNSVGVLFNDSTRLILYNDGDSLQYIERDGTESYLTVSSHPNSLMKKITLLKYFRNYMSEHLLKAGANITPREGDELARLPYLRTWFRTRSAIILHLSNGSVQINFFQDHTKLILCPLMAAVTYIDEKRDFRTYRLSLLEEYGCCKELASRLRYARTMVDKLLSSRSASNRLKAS
Method: 2. Luciferase Assay for PLK1
(1) Preparation and Culture of HeLa LgBit (Plk1-HiBit KI) Cell Line
A HeLa cell line in which the LgBit vector was transfected and expressed stably was prepared. Then, after constructing gRNA and donor to express the HiBit amino acid sequence behind the C-terminal of the Plk1 gene, which was inherent in the cell, it was inserted into the cell together with a vector capable of expressing CRISPR/Cas9. Only the cells in which the insertion was completed and knock-in had progressed were selected, sub-cultured and used.
(2) Treatment of Compounds of the Present Invention and Method of Luciferase Assay
In the case of HeLa LgBit (Plk1-HiBit KI), the compounds were treated after being released after thymidine block, and the process was as follows. Thymidine (Sigma-Aldrich Cat. No. T9250-5G) was completely dissolved in DW and used in the experiment. For thymidine block, the products were treated with 2 mM of thymidine and then incubated for 24 hours. For release and chemical treatment, the medium was suctioned and washed with 1×PBS. TrypLE™ was added and incubated in 37° C. CO2 incubator for 5 min. Cells neutralized by adding complete media were counted through a counter. For each well of a 96-well culture plate (SPL), 3.3×10^4 cells and a total medium volume of 150 μL were seeded and incubated in a CO2 incubator.
Each cell line was incubated in a CO2 incubator for 18 hours, and Endurazine was added to each well to make up 4% of the total volume. After adding the compound of the present invention in a 96-well white plate (SPL) to a concentration of 300 nM, the wavelength of the plate reader (BMG Labtech, CLARIOstar Plus) was set to […], and then the luminescence was tracked in real time.
In Table 2, Activity represents the ratio of the luminescence value of each Exemplary Compound treatment group to DMSO treatment group (+++: <0.3, ++<0.6, +<0.7).

Activity: ratio of the luminescence value of each Exemplary Compound treatment group to DMSO treatment group (PLK1)	SMILES	IC50 (H526 cell line)	IC50 (MRC-5 cell line)
+++ (+++: <0.3)	COc1cc(C(=O)NC2CC3(CCN(CC4CCN(c5c(F)cc(NC6CCC(=O)NC6=O)cc5F)CC4)CC3)C2)ccc1Nc1ncc2c(n1)N(C(C)C)CC(F)(F)C(=O)N2C (stereo not drawn) [Compound 25, 4-((7,7-difluoro-9-isopropyl-5-methyl-6-oxo-6,7,8,9-tetrahydro-5H-pyrimido[4,5-b][1,4]diazepin-2-yl)amino)-N-(7-((1-(4-((2,6-dioxopiperidin-3-yl)amino)-2,6-difluorophenyl)piperidin-4-yl)methyl)-7-azaspiro[3.5]nonan-2-yl)-3-methoxybenz amide]	< 0.03 µM	9240 nM
+++ (+++: <0.3)	COc1cc(C(=O)NC2CC3(CCN(CC4CCN(c5ccc(N(C)C6CCC(=O)NC6=O)cc5F)CC4)CC3)C2)ccc1Nc1ncc2c(n1)N(C(C)C)CC(F)(F)C(=O)N2C (stereo not drawn) [Compound 26, 4-((7,7-difluoro-9-isopropyl-5-methyl-6-oxo-6,7,8,9-tetrahydro-5H-pyrimido[4,5-b][1,4]diazepin-2-yl)amino)-N-(7-((1-(4-((2,6-dioxopiperidin-3-yl)(methyl)amino)-2-fluorophenyl)piperidin-4-yl)methyl)-7-azaspiro[3.5]nonan-2-yl)-3-methoxybenzamide]	< 0.05 µM	6550 nM
++ (++<0.6)	COc1cc(C(=O)NC2CC3(CCN(CC4CCN(c5ccc(NC6CCC(=O)NC6=O)cc5)CC4)CC3)C2)ccc1Nc1ncc2c(n1)N(C(C)C)CC(F)(F)C(=O)N2C (stereo not drawn) [Compound 28, 4-((7,7-difluoro-9-isopropyl-5-methyl-6-oxo-6,7,8,9-tetrahydro-5H-pyrimido[4,5-b][1,4]diazepin-2-yl)amino)-N-(7-((1-(4-((2,6-dioxopiperidin-3-yl)amino)phenyl)piperidin-4-yl)methyl)-7-azaspiro[3.5]nonan-2-yl)-3-methoxybenzamide]	< 0.03 µM	10200 nM
++ (++<0.6)	COc1cc(C(=O)NC2CC3(CCN(CC4CCN(c5c(F)cc(N(C)C6CCC(=O)NC6=O)cc5F)CC4)CC3)C2)ccc1Nc1ncc2c(n1)N(C(C)C)CC(F)(F)C(=O)N2C (stereo not drawn) [Compound 29, 4-((7,7-difluoro-9-isopropyl-5-methyl-6-oxo-6,7,8,9-tetrahydro-5H-pyrimido[4,5-b][1,4]diazepin-2-yl)amino)-N-(7-((1-(4-((2,6-dioxopiperidin-3-yl)(methyl)amino)-2,6-difluorophenyl)piperidin-4-yl)methyl)-7-azaspiro[3.5]nonan-2-yl)-3-methoxybenzamide]	< 0.05 µM	18500 nM
+++ (+++: <0.3)	COc1cc(C(=O)NCC2CC3(CCN(CC4CCN(c5c(F)cc(NC6CCC(=O)NC6=O)cc5F)CC4)CC3)C2)ccc1Nc1ncc2c(n1)N(C(C)C)CC(F)(F)C(=O)N2C (stereo not drawn) [Compound 30, 4-((7,7-difluoro-9-isopropyl-5-methyl-6-oxo-6,7,8,9-tetrahydro-5H-pyrimido[4,5-b][1,4]diazepin-2-yl)amino)-N-((7-((1-(4-((2,6-dioxopiperidin-3-yl)amino)-2,6-difluorophenyl)piperidin-4-yl)methyl)-7-azaspiro[3.5]nonan-2-yl)methyl)-3-methoxybenzamide]	< 0.03 µM	7870 nM
